Measurements from patent US6066340A, “Process for the preparation of microspheres containing biologically active components” (Fidia S.p.A., priority 1991, dated 2000).

Assay: GM1 plasma levels after intramuscular administration
Format: in vivo, New Zealand rabbits
Conditions: 2 mg/kg i.m.
Procedure: Microspheres of different dimensions of HYAFF-11 containing GM1 (10-40 μm) were prepared as described in Examples 29-30.
The ganglioside was administered by intramuscular route to groups of New Zealand rabbits (weighing 2.5 kg) at a concentration of 2 mg/kg.
At the set times, 2.5 ml of blood was withdrawn from the median artery of the ear. Each blood sample was incubated at 37° C. for one hour and then refrigerated overnight at 4° C. The samples were then centrifuged and the upper layer of serum was removed. 2 ml of tetrahydrofurane (THF) were added to 500 μl of serum for the determination of the GM1 content. The sample was stirred and centrifuged and the upper layer was stored. The precipitate was treated twice with […] of THF and 500 μl of phosphate buffer (50 mM) and centrifuged. The upper layers thus obtained were extracted with ethyl ether after separation of the aqueous phase, the organic phase was further extracted with water. The two aqueous phases were then mixed and freeze-dried. The freeze-dried product was redissolved in water and the GM1 content determined by the ELISA test.

monosialoganglioside GM1
Area under curve after i.m. administration of GM1 (1st study): 127.74 µg/h/mL | Area under curve after i.m. administration of GM1 (2nd study): 134.43 µg/h/mL
